According to US7390630B1, “Method of identifying a compound that selectively inhibits cytokine-stimulated T cell induced production of TNF-alpha by monocytes” (Mathilda and Terence Kennedy Institute of Rheumatology Trust, priority 1999, dated 2008):

What was measured:
Format in all cases: cell-based, Human
[1] = test system: monocyte TNFα production induced by anti-CD3 antibody stimulated T-cells (Ttcr cells); assay: Ttcr cell-induced TNFα production by monocytes (co-culture, ELISA)
Experimental: Human peripheral blood T cells and monocytes were isolated from single donor plateletpheresis residues (purchased from the North London Blood Transfusion service, Colindale, GB). Mononuclear cells were isolated by Ficoll/Hypaque centrifugation (specific density 1.077 g/ml, Nycomed Pharma AS, Oslo, Norway), prior to cell separation in a Beckman JE6 elutriator. Elutriation was performed in culture medium containing 1% heat-inactivated foetal calf serum (FCS) using methods known in the art (see Sebbag et al., 1997, Parry et al., 1997). T cell and monocyte purity were assessed by flow cytometry (see Sebbag et al., 1997).
Ttcr cells: Ttcr cells were prepared from elutriation enriched T cells by resuspending the cells at a density of 10^6 cells/ml in RPMI 1640 (containing 10% heat inactivated AB+ human serum (Biowhittaker, UK). Following resuspension, the cells were incubated (at 37° C. in a 5% CO2/95% humidified incubator) in 6-well culture plates with immobilised anti-CD3 monoclonal antibodies for 24 hours (OKT3, ATCC, Maryland, USA), the antibodies having previously been coated on to the 6-well culture plates at 10 μg/ml (overnight at 4° C.).
Following completion of the culture period, the Tck and Ttcr cells were harvested and washed three times in RPMI medium containing 1% heat-inactivated fetal calf serum (FCS), prior to fixation for 1 minute at 0° C. in PBS containing 0.05% glutaraldehyde, and neutralized with an equivalent volume of T lymphocyte neutralizing buffer containing 0.2 M glycine. […]
(§1) Reagents for the TNFα ELISA were provided by Dr. W. Buurman (Rijks Universiteit Limburg, Maastricht, Netherlands). […] The rabbit polyclonal antibody was detected using a peroxidase-conjugated goat anti-rabbit IgG (H+L) (Jackson Immunoresearch Laboratories Inc., Westgrove, PE, USA) followed by an appropriate substrate. […]
(§2) Monocytes were treated with M-CSF for 2 days as described above, infected with adenovirus containing either an insert encoding IκBα (AdvIκBα) or no insert (Adv0). The effect of IκBα over-expression on T cell-induced monocyte (ratio 5:1) TNFα production was then determined.

[2] = test system: monocyte TNFα production induced by cytokine stimulated T cells (Tck cells); assay: Tck cell-induced TNFα production by monocytes (co-culture, ELISA); conditions: T cells stimulated with IL-2, IL-6 and TNFα; results not shown
Experimental: Human peripheral blood T cells and monocytes were isolated from single donor plateletpheresis residues (purchased from the North London Blood Transfusion service, Colindale, GB). Mononuclear cells were isolated by Ficoll/Hypaque centrifugation (specific density 1.077 g/ml, Nycomed Pharma AS, Oslo, Norway), prior to cell separation in a Beckman JE6 elutriator. Elutriation was performed in culture medium containing 1% heat-inactivated foetal calf serum (FCS) using methods known in the art (see Sebbag et al., 1997, Parry et al., 1997). T cell and monocyte purity were assessed by flow cytometry (see Sebbag et al., 1997). […]
as §1, §2

[3] = test system: monocyte TNFα production induced by RA CD3+ enriched cells; assay: Monocyte TNFα production induced by fixed RA synovial CD3+ enriched T cells; conditions: for TNFα: LY294002 50 μM 30 min, Wortmannin 500 nM 30 min, AKTA 5 mM 30 min, Rapamycin 10 μM 60 min, untreated control 686 ± 59, mean ±SD; for TNFα / Percent change: RA T cells:monocytes 5:1, 18 h; for Percent change: change of TNFα versus untreated control, LY294002 50 μM, Wortmannin 500 nM, Rapamycin 10 μM
Experimental: Rheumatoid arthritis (RA) mononuclear cells were obtained from synovial tissue specimens provided by the Rheumatology Clinic, Charing Cross Hospital, London, UK. Tissue was teased into small pieces and digested in medium containing 0.15 mg/ml DNase type 1 (Sigma, UK) and 5 mg/ml collagenase (Roche, UK) for 1 to 2 hours at 37° C. After passing cells through nylon mesh to exclude cell debris, cells were washed and resuspended in RPMI medium (Biohittaker, Verviers, Belgium) (containing 10% heat-inactivated FCS) at a density of 1×10^6 cells/ml and used immediately.
CD3+ enriched cells were isolated from RA synovial mononuclear cells by direct, positive selection using Dynabeads (Dynal UK Ltd, Wirral, UK) coated with anti-CD3 monoclonal antibodies (anti-CD3 mAbs). Briefly, mononuclear cells (1×10^7) were cultured with 100 μl anti-CD3 mAb-coated Dynabeads for 20 minutes at 4° C. under constant rotation. Cells attached to beads were isolated using a magnetic particle concentrator (Dynal, Merseyside, UK) and cultured for 6 hours at 37° C. Detached cells were removed from magnetic beads and washed three times using the magnetic particle concentrator.
This technique allowed for isolation of CD3+ cells, yielding cells of high purity (>99%) and viability (>95%). Following isolation, CD3+ enriched cells were washed three times in RPMI medium containing 1% heat-inactivated FCS, fixed for 1 minute at 0° C. in phosphate-buffered saline (PBS) containing 0.05% glutaraldehyde, and neutralized with an equivalent volume of T lymphocyte neutralizing buffer containing 0.2 M glycine. Following a further three washes, the fixed CD3+ cells were resuspended (at a concentration of 2×10^6 cell/ml) in RPMI medium containing 5% heat-inactivated FCS, and stored for up to 7 days at 4° C. until used. Prior to use, CD3+ enriched cells were washed twice in complete medium.
Monocytes were cultured at 1×10^6 cells/ml in RPMI 1640 medium (containing 5% heat-inactivated FCS) in round-bottomed 96-well culture plates (Nunc Life Technologies Ltd., Paisley, Scotland) in the presence of fixed T cells at varying T-cell/monocyte ratios ranging from 1:1 to 7:1 (as indicated). In some experiments, a semi-permeable membrane insert (Nunc Life Technologies Ltd., Paisley, Scotland) was fitted into the culture wells to physically separate the monocytes from the T cells. In all experiments, efficient fixation of T cells was tested by incubating an aliquot of T-cells (7×10^6 cells/ml) in the absence of monocytes and assaying the amount of TNFα released by the cells under these conditions. Lipopolysaccharide (LPS, 10 ng/ml) was included in experiments as a positive control for monocyte cytokine production.
Reagents for the TNFα ELISA were provided by Dr. W. Buurman (Rijks Universiteit Limburg, Maastricht, Netherlands). The ELISA was performed using immobilized anti-TNFα mAb 61E71. and developed using a rabbit anti-TNFα polyclonal antibody. An alternative ELISA for TNFα is commercially available from Pharmingen. The rabbit polyclonal antibody was detected using a peroxidase-conjugated goat anti-rabbit IgG (H+L) (Jackson Immunoresearch Laboratories Inc., Westgrove, PE, USA) followed by an appropriate substrate. The sensitivity range of the assay was 1.6 to 5000 pg/ml.
For monocyte/T-cell co-culture experiments, monocytes were cultured with relevant enzyme inhibitors at 37° C. for varying periods of time (see legend to Table 2) prior to co-culture with fixed T-cells for 18 hours. Supernatants were harvested and assayed for presence of TNFα by ELISA. Cell suspensions were taken for determination of cell viability. […]
The effect of wortmannin and LY294002 was also studied on monocyte TNFα production induced by RA CD3+ ve enriched cells (see Table 2). Normal monocytes isolated by elutriation were treated with selective enzyme inhibitors for the designated times prior to co-culture with fixed rheumatoid CD3+ T cells at a ratio 5:1 (T cells to monocytes) for 18 hours. […]

## CO[C@H]1C[C@@H]2CC[C@@H](C)[C@@](O)(O2)C(=O)C(=O)N2CCCC[C@H]2C(=O)O[C@H]([C@H](C)C[C@@H]2CC[C@@H](O)[C@H](OC)C2)CC(=O)[C@H](C)/C=C(\C)[C@@H](O)[C@@H](OC)C(=O)[C@H](C)C[C@H](C)/C=C/C=C/C=C/1C [Rapamycin, rapamycin]
[1]; results not shown
  effect on monocyte TNFα production induced by anti-CD3 antibody stimulated T cells: no effect
[2]
  effect on monocyte TNFα production induced by cytokine stimulated T cells: no effect
[3]; AKTA 5 mM, rapamycin 10 μM, T cells:monocytes 5:1
  effect on TNFα production in monocytes stimulated by RA T-cells: no significant effect
[3]
  TNFα: 399 ± 21 pg/mL
[3]; AKTA 5 mM
  Percent change: −42%

## COC[C@H]1OC(=O)c2coc3c2[C@@]1(C)C1=C(C3=O)[C@@H]2CCC(=O)[C@@]2(C)C[C@H]1OC(C)=O [Wortmannin, wortmannin]
[1]; Homo sapiens, Monocyte, T cells:monocytes 5:1, 18 h co-culture, read-out: IC50, inhibition of monocyte TNFα production induced by Ttcr cells
  IC50: 0.05 nM
[3]
  TNFα: 7333 ± 304 pg/mL
[3]; listed as wortmannin
  TNFα: 7333 ± 304 pg/mL
[3]; AKTA 5 mM
  Percent change: +968%
